According to the supplement of paper PMC8671470:
± gives the standard deviation of the averaged measurements.

Experiments:
Conditions in all cases: 72 h
[1] = test system: HL-60
How it was run: (§1)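 Seeded in RPMI 1640 at densities within the linear growth range, fifteen myeloid leukaemia cell lines were dispensed into 384-well plates with acoustically pre-printed compounds spanning five tenfold doses from 1 to 10,000 nM, in duplicate. The plates were kept for 72 h at 37 °C in 5% CO2 before luminescent ATP viability was measured and normalised to vehicle and to a positive control at 10 µM. Curves were fitted with a four-parameter log-logistic model. The IC50 was taken from those curves.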

[2] = test system: KCL-22
How it was run: as §1

[3] = test system: KG-1
How it was run: as §1

[4] = test system: ML-2
How it was run: as §1

[5] = test system: NOMO-1
How it was run: as §1

[6] = test system: HL-60; experiment: cell viability (% survival relative to DMSO control); higher = less cytotoxic
How it was run: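 Area under the curve, where listed, was derived from four-parameter log-logistic fits with drc and PharmacoGx. These fits used CellTiter-Glo viability from HL-60 cells in RPMI 1640 with 10% FBS, normalised to DMSO wells and wells holding 10 μM proteasome inhibitor. The full library was rescreened on 384-well plates in duplicate at five tenfold concentrations, 1–10,000 nM, with DMSO or 100 nM of one of three metabolic inhibitors, for 72 h at 37 °C, 5% CO2.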

[7] = test system: BV-173; experiment: cell viability (% survival relative to DMSO control, bortezomib = 0%); higher = less cytotoxic
How it was run: (§2)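 Percent survival is reported as the mean of duplicate wells. Cells from 10 AML and 5 CML lines were plated in 384-well plates containing compounds at 1, 10, 100, 1000 or 10000 nM and kept for 72 h at 37 °C in 5% CO2. Readout used CellTiter-Glo luminescence, scaled so that vehicle equals 100% and a 10 µM positive control equals 0%.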

[8] = test system: HEL; experiment: as above
How it was run: as §2

[9] = test system: HL-60; experiment: as above
How it was run: as §2

[10] = test system: K-562; experiment: as above
How it was run: as §2

[11] = test system: KCL-22; experiment: as above
How it was run: as §2

[12] = test system: KG-1; experiment: as above
How it was run: as §2

[13] = test system: KU-812; experiment: as above
How it was run: as §2

[14] = test system: LAMA-84; experiment: as above
How it was run: as §2

[15] = test system: ML-2; experiment: as above
How it was run: as §2

[16] = test system: MOLM-13; experiment: as above
How it was run: as §2

[17] = test system: MV4-11; experiment: as above
How it was run: as §2

[18] = test system: Mono-Mac-6; experiment: as above
How it was run: as §2

[19] = test system: NOMO-1; experiment: as above
How it was run: as §2

[20] = test system: SHI-1; experiment: as above
How it was run: as §2

[21] = test system: THP-1; experiment: as above
How it was run: as §2

CCc1c(C(=O)C(N)=O)c2c(OCC(=O)O)cccc2n1Cc1ccccc1 [Varespladib]
Conditions	IC50 (cell viability) [µM]
[1]	> 10
[2]	> 10
[3]	> 10
[4]	> 10
[5]	> 10

cell viability [%], [6]
Conditions	0.001 µM	0.01 µM	0.1 µM	1 µM	10 µM
co-treatment: AZD3965 100 nM	97.7 ± 5.8	99.9 ± 7	102 ± 5.3	100.2 ± 0.46	97 ± 6.2
co-treatment: DMSO vehicle	101 ± 3.8	95.7 ± 2.9	103 ± 8.2	97.5 ± 1.5	98.1 ± 5.8
co-treatment: GSK2194069 100 nM	92.6 ± 6.1	93.5 ± 2.6	97 ± 3.3	92.9 ± 2.3	89.1 ± 4.8
co-treatment: pictilisib 100 nM	103 ± 4.1	99.9 ± 18	107 ± 3.4	97.7 ± 1.4	97.2 ± 11

cell viability [%]
Conditions	1 nM	10 nM	100 nM	1000 nM	10000 nM
[7]	90.6	104	85.4	99.3	88.7
[8]	94.8	111	99.2	109	87.6
[9]	98.8	101	92.8	96.2	93.2
[10]	98.5	97.5	110	92.4	99.9
[11]	91.2	107	105	102	96.5
[12]	99.5	96.9	99.4	95.9	94
[13]	96.1	97.7	98.5	97.6	86.4
[14]	95.6	100	103	101	81.3
[15]	105	105	109	104	89.7
[16]	80.7	95.3	85.8	101	118
[17]	88.4	109	101	88.3	98.5
[18]	99.1	101	93.7	100	89
[19]	102	91.6	101	115	95.2
[20]	106	99	106	92.9	93.4
[21]	103	105	100	97.4	96.9

CCCCCCCC/C=C\CCCCCCCC(=O)Nc1ccccc1 [Octadec-9-Enoic Acid Phenylamide]
Conditions	IC50 (cell viability) [µM]
[1]	> 10
[2]	> 10
[3]	> 10
[4]	> 10
[5]	> 10

cell viability [%], [6]
Conditions	0.001 µM	0.01 µM	0.1 µM	1 µM	10 µM
co-treatment: AZD3965 100 nM	99.2 ± 1.6	98.61 ± 0.52	104 ± 4.4	101 ± 1.6	90.3 ± 8.5
co-treatment: DMSO vehicle	94.5 ± 9.6	91.3 ± 13	103 ± 5.8	101 ± 3.4	105 ± 3.8
co-treatment: GSK2194069 100 nM	93 ± 1.7	98 ± 9.1	103 ± 4.3	98.7 ± 4.8	91.5 ± 6.8
co-treatment: pictilisib 100 nM	98.2 ± 4.6	99 ± 3.9	106 ± 1.2	108 ± 10	91.3 ± 8.9

cell viability [%]
Conditions	1 nM	10 nM	100 nM	1000 nM	10000 nM
[7]	98.4	94.8	99.7	100	95.7
[8]	104	92.9	92.3	106	104
[9]	96.1	105	113	100	124
[10]	110	92.7	95.8	104	93.4
[11]	103	95.7	99.5	103	96.6
[12]	107	96.9	99.9	99.2	97.4
[13]	100	96.3	95.6	96.8	108
[14]	107	97.8	101	103	99.4
[15]	113	105	99.9	103	108
[16]	106	90.3	91.1	98.3	108
[17]	118	100	108	110	82.6
[18]	97.1	103	108	99.5	101
[19]	97	97.1	97.1	99.2	99.6
[20]	109	94.4	103	100	98
[21]	98.7	97.9	103	93.5	107
